Experiments:
[1] = tested on: Epidermal growth factor receptor (Homo sapiens), P00533 [L861Q]; conditions: Compound concentration 1000.0 nM
[2] = target: Eukaryotic translation initiation factor 2-alpha kinase 1 (Homo sapiens) (UniProt Q9BQI3); conditions: Compound concentration 1000.0 nM
[3] = target: Atypical kinase COQ8B, mitochondrial (Homo sapiens) (UniProt Q96D53); conditions: Compound concentration 1000.0 nM
[4] = target: Phosphatidylinositol 3-kinase catalytic subunit type 3 (Homo sapiens) (UniProt Q8NEB9); conditions: Compound concentration 1000.0 nM
[5] = target: Serine/threonine-protein kinase D3 (Homo sapiens) (UniProt O94806); conditions: Compound concentration 1000.0 nM
[6] = target: Serine/threonine-protein kinase BRSK2 (Homo sapiens) (UniProt Q8IWQ3); conditions: Compound concentration 1000.0 nM
[7] = target: Mitogen-activated protein kinase 9 (Homo sapiens) (UniProt P45984); conditions: Compound concentration 1000.0 nM
[8] = target: Serine/threonine-protein kinase 3 (Homo sapiens) (UniProt Q13188); conditions: Compound concentration 1000.0 nM
[9] = target: BDNF/NT-3 growth factors receptor (Homo sapiens) (UniProt Q16620); conditions: Compound concentration 1000.0 nM
[10] = target: Serine/threonine-protein kinase 4 (Homo sapiens) (UniProt Q13043); conditions: Compound concentration 1000.0 nM
[11] = tested on: Epidermal growth factor receptor (Homo sapiens), P00533 [UNDEFINED MUTATION]; conditions: Compound concentration 1000.0 nM
[12] = target: Mitogen-activated protein kinase kinase kinase 5 (Homo sapiens) (UniProt Q99683); conditions: Compound concentration 1000.0 nM
[13] = target: Tyrosine-protein kinase HCK (Homo sapiens) (UniProt P08631); conditions: Compound concentration 1000.0 nM
[14] = target: Cyclin-dependent kinase-like 5 (Homo sapiens) (UniProt O76039); conditions: Compound concentration 1000.0 nM
[15] = target: Serine/threonine-protein kinase 32C (Homo sapiens) (UniProt Q86UX6); conditions: Compound concentration 1000.0 nM
[16] = target: Serine/threonine-protein kinase WNK2 (Homo sapiens) (UniProt Q9Y3S1); conditions: Compound concentration 1000.0 nM
[17] = target: Serine/threonine-protein kinase Sgk1 (Homo sapiens) (UniProt O00141); conditions: Compound concentration 1000.0 nM
[18] = target: Tyrosine-protein kinase Fyn (Homo sapiens) (UniProt P06241); conditions: Compound concentration 1000.0 nM
[19] = target: Serine/threonine-protein kinase SIK1 (Homo sapiens, UniProt P57059); conditions: Compound concentration 1000.0 nM
[20] = tested on: Phosphatidylinositol 4,5-bisphosphate 3-kinase catalytic subunit alpha isoform (Homo sapiens), P42336 [Q546K]; conditions: Compound concentration 1000.0 nM
[21] = tested on: Receptor-type tyrosine-protein kinase FLT3 (Homo sapiens), P36888 [UNDEFINED MUTATION]; conditions: Compound concentration 1000.0 nM
[22] = target: SNF-related serine/threonine-protein kinase (Homo sapiens) (UniProt Q9NRH2); conditions: Compound concentration 1000.0 nM
[23] = target: Tyrosine-protein kinase Lck (Homo sapiens) (UniProt P06239); conditions: Compound concentration 1000.0 nM
[24] = target: Casein kinase I isoform alpha-like (Homo sapiens) (UniProt Q8N752); conditions: Compound concentration 1000.0 nM
[25] = target: Cytoplasmic tyrosine-protein kinase BMX (Homo sapiens) (UniProt P51813); conditions: Compound concentration 1000.0 nM
[26] = target: Mitogen-activated protein kinase kinase kinase 4 (Homo sapiens) (UniProt Q9Y6R4); conditions: Compound concentration 1000.0 nM
[27] = target: Serine/threonine-protein kinase Nek3 (Homo sapiens) (UniProt P51956); conditions: Compound concentration 1000.0 nM
[28] = target: Myotonin-protein kinase (Homo sapiens) (UniProt Q09013); conditions: Compound concentration 1000.0 nM
[29] = target: Alpha-1B adrenergic receptor (Homo sapiens) (UniProt P35368); conditions: Compound concentration 10.0 uM
[30] = target: Leucine-rich repeat serine/threonine-protein kinase 2 (Homo sapiens) (UniProt Q5S007); conditions: Compound concentration 1000.0 nM
[31] = target: Casein kinase I isoform delta (Homo sapiens) (UniProt P48730); conditions: Compound concentration 1000.0 nM
[32] = target: Serine/threonine-protein kinase BRSK1 (Homo sapiens) (UniProt Q8TDC3); conditions: Compound concentration 1000.0 nM
[33] = target: Tyrosine-protein kinase JAK2 (Homo sapiens) (UniProt O60674); conditions: Compound concentration 1000.0 nM
[34] = tested on: Tyrosine-protein kinase ABL1 (Homo sapiens), P00519 [H396P]; conditions: Compound concentration 1000.0 nM
[35] = target: Serine/threonine-protein kinase B-raf (Homo sapiens) (UniProt P15056); conditions: Compound concentration 1000.0 nM
[36] = target: Serine/threonine-protein kinase PAK 5 (Homo sapiens) (UniProt Q9P286); conditions: Compound concentration 1000.0 nM
[37] = target: Kappa-type opioid receptor (Homo sapiens, UniProt P41145); conditions: Compound concentration 10.0 uM
[38] = target: Death-associated protein kinase 3 (Homo sapiens, UniProt O43293); conditions: Compound concentration 1000.0 nM
[39] = target: SRSF protein kinase 3 (Homo sapiens) (UniProt Q9UPE1); conditions: Compound concentration 1000.0 nM
[40] = target: Macrophage colony-stimulating factor 1 receptor (Homo sapiens) (UniProt P07333); conditions: Compound concentration 1000.0 nM
[41] = target: Atypical kinase COQ8A, mitochondrial (Homo sapiens) (UniProt Q8NI60); conditions: Compound concentration 1000.0 nM
[42] = target: Serine/threonine-protein kinase TNNI3K (Homo sapiens) (UniProt Q59H18); conditions: Compound concentration 1000.0 nM
[43] = target: Insulin receptor-related protein (Homo sapiens) (UniProt P14616); conditions: Compound concentration 1000.0 nM
[44] = target: D(3) dopamine receptor (Homo sapiens) (UniProt P35462); conditions: Compound concentration 10.0 uM
[45] = target: Tyrosine-protein kinase Srms (Homo sapiens) (UniProt Q9H3Y6); conditions: Compound concentration 1000.0 nM

Sequence of Serine/threonine-protein kinase Sgk1 (Homo sapiens) (O00141 whole entry): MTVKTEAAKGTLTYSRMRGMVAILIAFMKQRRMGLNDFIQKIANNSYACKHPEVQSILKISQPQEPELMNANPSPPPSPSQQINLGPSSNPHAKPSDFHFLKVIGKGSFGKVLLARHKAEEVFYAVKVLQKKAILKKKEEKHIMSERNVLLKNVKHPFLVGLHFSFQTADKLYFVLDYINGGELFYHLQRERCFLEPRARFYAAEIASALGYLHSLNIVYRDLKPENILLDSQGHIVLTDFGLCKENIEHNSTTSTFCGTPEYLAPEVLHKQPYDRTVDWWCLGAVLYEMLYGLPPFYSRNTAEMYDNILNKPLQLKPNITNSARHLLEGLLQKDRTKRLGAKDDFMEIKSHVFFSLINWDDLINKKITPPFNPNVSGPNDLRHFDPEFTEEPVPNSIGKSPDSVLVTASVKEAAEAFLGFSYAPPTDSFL
Sequence of Phosphatidylinositol 4,5-bisphosphate 3-kinase catalytic subunit alpha isoform (Homo sapiens), P42336 [Q546K] (P42336 whole entry Q546K, canonical isoform): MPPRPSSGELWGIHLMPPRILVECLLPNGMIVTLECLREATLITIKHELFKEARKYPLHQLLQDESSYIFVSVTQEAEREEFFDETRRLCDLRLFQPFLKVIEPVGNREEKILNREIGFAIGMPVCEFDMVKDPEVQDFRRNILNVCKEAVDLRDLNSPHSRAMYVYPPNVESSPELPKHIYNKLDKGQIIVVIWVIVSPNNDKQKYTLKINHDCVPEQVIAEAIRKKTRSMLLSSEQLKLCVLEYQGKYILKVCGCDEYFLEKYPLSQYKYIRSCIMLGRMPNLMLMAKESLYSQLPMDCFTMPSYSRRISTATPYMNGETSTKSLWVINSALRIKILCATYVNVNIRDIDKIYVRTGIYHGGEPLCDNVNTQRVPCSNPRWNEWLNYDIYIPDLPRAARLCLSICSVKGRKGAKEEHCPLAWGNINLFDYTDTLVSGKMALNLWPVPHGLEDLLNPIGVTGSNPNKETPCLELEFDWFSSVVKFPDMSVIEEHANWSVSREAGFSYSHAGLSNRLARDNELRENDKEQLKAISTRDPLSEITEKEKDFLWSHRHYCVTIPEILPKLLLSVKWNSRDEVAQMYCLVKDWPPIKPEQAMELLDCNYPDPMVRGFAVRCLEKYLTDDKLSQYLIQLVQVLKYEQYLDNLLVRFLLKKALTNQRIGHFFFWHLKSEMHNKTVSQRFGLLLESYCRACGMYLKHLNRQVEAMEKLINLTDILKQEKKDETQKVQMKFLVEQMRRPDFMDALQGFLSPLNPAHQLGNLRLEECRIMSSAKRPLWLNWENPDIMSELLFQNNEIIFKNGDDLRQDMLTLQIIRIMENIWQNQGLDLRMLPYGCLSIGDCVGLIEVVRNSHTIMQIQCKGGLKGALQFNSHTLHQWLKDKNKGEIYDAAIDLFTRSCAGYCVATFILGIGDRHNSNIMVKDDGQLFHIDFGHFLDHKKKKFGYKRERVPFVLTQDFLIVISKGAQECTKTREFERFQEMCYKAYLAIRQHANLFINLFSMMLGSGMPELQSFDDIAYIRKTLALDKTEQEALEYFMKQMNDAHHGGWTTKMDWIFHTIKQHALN
Sequence of Casein kinase I isoform delta (Homo sapiens) (P48730 whole entry, looked up, canonical isoform): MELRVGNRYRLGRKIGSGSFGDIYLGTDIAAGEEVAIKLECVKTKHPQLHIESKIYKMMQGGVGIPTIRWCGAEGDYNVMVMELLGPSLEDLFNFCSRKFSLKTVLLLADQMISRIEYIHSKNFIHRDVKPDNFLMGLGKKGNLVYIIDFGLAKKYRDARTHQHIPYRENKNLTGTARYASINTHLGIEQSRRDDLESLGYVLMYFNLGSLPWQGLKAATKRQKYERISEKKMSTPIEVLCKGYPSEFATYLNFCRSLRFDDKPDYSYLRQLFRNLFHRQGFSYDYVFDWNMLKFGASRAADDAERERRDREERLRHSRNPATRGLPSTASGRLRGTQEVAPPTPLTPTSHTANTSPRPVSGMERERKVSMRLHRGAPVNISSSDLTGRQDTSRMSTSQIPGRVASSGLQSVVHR
Sequence of Serine/threonine-protein kinase 4 (Homo sapiens) (Q13043 whole entry): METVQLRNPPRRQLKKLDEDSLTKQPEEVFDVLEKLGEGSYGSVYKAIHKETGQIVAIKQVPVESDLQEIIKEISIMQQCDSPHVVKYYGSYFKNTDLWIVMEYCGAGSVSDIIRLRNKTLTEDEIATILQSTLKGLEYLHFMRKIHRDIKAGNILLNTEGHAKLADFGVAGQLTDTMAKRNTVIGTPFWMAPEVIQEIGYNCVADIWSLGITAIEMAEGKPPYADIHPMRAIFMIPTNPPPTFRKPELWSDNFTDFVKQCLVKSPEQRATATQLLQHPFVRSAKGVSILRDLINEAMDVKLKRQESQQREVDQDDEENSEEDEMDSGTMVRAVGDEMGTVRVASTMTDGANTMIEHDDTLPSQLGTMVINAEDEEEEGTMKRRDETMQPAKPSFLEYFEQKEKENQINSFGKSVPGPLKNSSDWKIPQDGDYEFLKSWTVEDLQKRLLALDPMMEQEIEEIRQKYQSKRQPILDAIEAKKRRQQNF
Sequence of BDNF/NT-3 growth factors receptor (Homo sapiens) (Q16620 32-822 limits assumed): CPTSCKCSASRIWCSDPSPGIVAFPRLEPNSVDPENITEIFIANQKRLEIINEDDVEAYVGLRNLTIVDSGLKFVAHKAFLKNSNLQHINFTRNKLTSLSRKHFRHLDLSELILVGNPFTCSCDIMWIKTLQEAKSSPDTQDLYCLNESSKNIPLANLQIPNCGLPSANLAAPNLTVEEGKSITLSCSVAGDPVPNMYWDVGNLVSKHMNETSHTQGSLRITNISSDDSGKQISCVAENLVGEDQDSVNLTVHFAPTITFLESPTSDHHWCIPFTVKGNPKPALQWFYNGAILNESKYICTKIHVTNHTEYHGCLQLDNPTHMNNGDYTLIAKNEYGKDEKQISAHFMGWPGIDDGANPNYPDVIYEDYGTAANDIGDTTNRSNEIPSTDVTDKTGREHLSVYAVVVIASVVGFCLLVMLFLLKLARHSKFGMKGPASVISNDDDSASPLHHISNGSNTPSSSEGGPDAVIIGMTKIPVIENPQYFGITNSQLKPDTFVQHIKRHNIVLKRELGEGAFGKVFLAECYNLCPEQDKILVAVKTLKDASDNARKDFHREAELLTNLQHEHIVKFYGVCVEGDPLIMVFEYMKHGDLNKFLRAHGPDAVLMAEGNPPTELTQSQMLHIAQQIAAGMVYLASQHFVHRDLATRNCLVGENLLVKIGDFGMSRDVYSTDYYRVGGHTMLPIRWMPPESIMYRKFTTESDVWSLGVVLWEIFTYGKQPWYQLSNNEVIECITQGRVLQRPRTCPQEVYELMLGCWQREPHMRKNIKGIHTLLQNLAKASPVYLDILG
Sequence of Death-associated protein kinase 3 (O43293 whole entry, looked up): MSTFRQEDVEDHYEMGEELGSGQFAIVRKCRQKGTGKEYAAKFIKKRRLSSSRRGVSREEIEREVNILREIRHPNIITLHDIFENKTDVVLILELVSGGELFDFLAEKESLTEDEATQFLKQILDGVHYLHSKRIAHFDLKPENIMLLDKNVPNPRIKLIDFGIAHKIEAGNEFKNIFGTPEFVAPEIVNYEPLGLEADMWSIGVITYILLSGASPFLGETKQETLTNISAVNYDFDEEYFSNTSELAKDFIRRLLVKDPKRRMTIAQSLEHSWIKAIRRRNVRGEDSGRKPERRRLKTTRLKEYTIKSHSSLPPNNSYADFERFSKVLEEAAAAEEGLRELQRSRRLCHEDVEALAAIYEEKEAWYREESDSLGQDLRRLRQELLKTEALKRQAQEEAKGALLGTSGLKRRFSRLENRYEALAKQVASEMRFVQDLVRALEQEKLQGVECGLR
Sequence of SRSF protein kinase 3 (Homo sapiens) (Q9UPE1 whole entry): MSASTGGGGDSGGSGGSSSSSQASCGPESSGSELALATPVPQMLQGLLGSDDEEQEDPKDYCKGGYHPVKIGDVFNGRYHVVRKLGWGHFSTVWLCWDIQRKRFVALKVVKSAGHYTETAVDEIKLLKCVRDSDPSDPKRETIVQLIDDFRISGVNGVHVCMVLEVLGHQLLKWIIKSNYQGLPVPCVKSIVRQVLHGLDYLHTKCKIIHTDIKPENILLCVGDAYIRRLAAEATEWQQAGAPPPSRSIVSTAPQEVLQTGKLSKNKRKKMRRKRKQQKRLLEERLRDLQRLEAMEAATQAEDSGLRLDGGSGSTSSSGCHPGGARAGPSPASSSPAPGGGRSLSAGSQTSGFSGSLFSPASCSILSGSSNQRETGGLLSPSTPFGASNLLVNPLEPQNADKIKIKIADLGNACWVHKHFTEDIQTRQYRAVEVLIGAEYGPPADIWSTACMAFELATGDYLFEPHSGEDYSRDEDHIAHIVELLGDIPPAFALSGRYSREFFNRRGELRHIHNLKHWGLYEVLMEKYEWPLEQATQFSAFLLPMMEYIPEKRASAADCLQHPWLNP
Sequence of Serine/threonine-protein kinase TNNI3K (Homo sapiens) (Q59H18 whole entry): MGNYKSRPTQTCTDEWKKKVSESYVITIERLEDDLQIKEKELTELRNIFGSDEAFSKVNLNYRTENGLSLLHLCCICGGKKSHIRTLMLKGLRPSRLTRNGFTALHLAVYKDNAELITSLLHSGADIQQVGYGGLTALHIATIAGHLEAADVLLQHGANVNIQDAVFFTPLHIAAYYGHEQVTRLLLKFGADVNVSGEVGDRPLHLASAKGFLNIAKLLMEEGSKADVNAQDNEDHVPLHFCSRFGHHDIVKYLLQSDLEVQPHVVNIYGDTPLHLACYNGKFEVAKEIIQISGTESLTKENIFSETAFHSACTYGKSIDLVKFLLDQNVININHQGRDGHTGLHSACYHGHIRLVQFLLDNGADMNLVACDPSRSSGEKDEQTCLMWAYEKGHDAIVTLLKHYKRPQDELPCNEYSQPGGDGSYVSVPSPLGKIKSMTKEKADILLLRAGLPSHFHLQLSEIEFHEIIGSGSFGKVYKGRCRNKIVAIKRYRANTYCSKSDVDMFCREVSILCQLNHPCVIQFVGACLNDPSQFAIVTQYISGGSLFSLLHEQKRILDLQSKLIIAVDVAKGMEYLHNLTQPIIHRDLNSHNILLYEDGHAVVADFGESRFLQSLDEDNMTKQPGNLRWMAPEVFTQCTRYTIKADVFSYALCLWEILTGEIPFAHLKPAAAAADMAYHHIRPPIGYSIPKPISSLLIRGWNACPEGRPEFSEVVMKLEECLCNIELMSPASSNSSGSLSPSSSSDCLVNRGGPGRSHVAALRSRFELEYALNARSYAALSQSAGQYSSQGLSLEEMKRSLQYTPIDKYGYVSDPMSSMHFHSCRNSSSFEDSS

In the case of CCCCN(CCCC)C(=O)CN1C[C@H](c2cc(OC)c3c(c2)OCO3)[C@@H](C(=O)O)[C@@H]1CC(C)(C)CCC [ABT-546], the residual activity [1] is reported as 76.4%, the residual activity [2] is reported as 100% and the residual activity [3] is reported as 0%. For the same compound, the residual activity [4] was 49.9%, the residual activity [5] was 90.2% and the residual activity [6] was 95.6%. It also gave a residual activity [7] of 100%, a residual activity [8] of 96.1% and a residual activity [9] of 62%. The residual activity [10] was 100%, the residual activity [11] was 95.6% and the residual activity [12] was 100%. It also gave a residual activity [13] of 100%, a residual activity [14] of 71.4% and a residual activity [15] of 100%. The residual activity [16] was 60.2%, the residual activity [17] was 69.2% and the residual activity [18] was 100%. For the same compound, the residual activity [19] was 100%, the residual activity [20] was 67.3% and the residual activity [21] was 90.6%. The residual activity [22] was 100%, the residual activity [23] was 100% and the residual activity [24] was 100%. It also gave a residual activity [25] of 100%, a residual activity [26] of 88.7% and a residual activity [27] of 99.1%. It also gave a residual activity [28] of 100%, an inhibition [29] of -7.9% and a residual activity [30] of 38%. It also gave a residual activity [31] of 100%, a residual activity [32] of 100% and a residual activity [33] of 100%. The residual activity [34] was 96.3%, the residual activity [35] was 90.4% and the residual activity [36] was 93.8%. It also gave an inhibition [37] of -1.47%, a residual activity [38] of 100% and a residual activity [39] of 100%. For the same compound, the residual activity [40] was 43%, the residual activity [41] was 100% and the residual activity [42] was 100%. For the same compound, the residual activity [43] was 100%, the inhibition [44] was 17.3% and the residual activity [45] was 69.6%.
CCCCN(CCCC)C(=O)CN1C[C@@H](c2cc(OC)c3c(c2)OCO3)[C@H](C(=O)O)[C@H]1CC(C)(C)CCC [A-545] was tested, and the residual activity [1] was 100%, the residual activity [2] was 100% and the residual activity [3] was 80.2%. The residual activity [4] was 98.7%, the residual activity [5] was 100% and the residual activity [6] was 98.3%. It also gave a residual activity [7] of 100%, a residual activity [8] of 100% and a residual activity [9] of 98.3%. It also gave a residual activity [10] of 94.4%, a residual activity [11] of 100% and a residual activity [12] of 100%. It also gave a residual activity [13] of 82.8%, a residual activity [14] of 100% and a residual activity [15] of 100%. For the same compound, the residual activity [16] was 99.3%, the residual activity [17] was 77.6% and the residual activity [18] was 99.1%. It also gave a residual activity [19] of 100%, a residual activity [20] of 100% and a residual activity [21] of 99.1%. It also gave a residual activity [22] of 98.4%, a residual activity [23] of 99.1% and a residual activity [24] of 91.1%. The residual activity [25] was 84.6%, the residual activity [26] was 85.5% and the residual activity [27] was 72.9%. It also gave a residual activity [28] of 100%, an inhibition [29] of 6.5% and a residual activity [30] of 65.9%. The residual activity [31] was 98.9%, the residual activity [32] was 88.9% and the residual activity [33] was 91%. The residual activity [34] was 89.4%, the residual activity [35] was 92.3% and the residual activity [36] was 96.6%. For the same compound, the inhibition [37] was 69.9%, the residual activity [38] was 100% and the residual activity [39] was 100%. For the same compound, the residual activity [40] was 100%, the residual activity [41] was 99.4% and the residual activity [42] was 95.9%. The residual activity [43] was 93.2%, the inhibition [44] was 16.6% and the residual activity [45] was 90.6%.

Source: ChEMBL document CHEMBL4507258 (2021)
